According to patent EP0454444A1, “Glutarimide derivatives and herbicides” (NISSAN CHEMICAL INDUSTRIES LTD., priority 1990, dated 1991):

What was measured:
Experiment in all cases: Herbicidal effect test by soil treatment
Type in all cases: in vivo
[1] = tested on: black nightshade (Solanum nigrum L.); settings: three weeks after spraying
Excerpt: (§1) In a plastic box of 15 cm length, 22 cm width and 6 cm depth, there was placed a sterilized dilvial soil, and seeds of barnyardgrass (Echinochloa crusgalli), large crabgrass (Digitaria adscendens), annual sedge (Cyperus microiria), black nightshade (Solanum nigrum L.), hairly galinosoga (Galinsoga ciliat), rorippa ssp. (Rorippa atrovirens), rice (Oryza sativa), corn (Zea mays), wheat (Triticum aestivum), soybean (Glysine max) and cotton (Gossypium herbaceum) were sown mixedly. After covering soil to about 1 cm over the seeds, herbicides were sprayed evenly on the soil surface to predetermined proportions of the active ingredient In spraying, the wettable powder, emulsifiable concentrate, dry flowable or flowable in the above formulation examples were diluted with water and sprayed over the entire surface by means of a small sprayer. Three weeks after spraying, the herbicidal effect on crop plants including rice, corn, wheat, soybean, cotton and various kinds of weeds were examined according to the judgement criteria shown below. Judgement criteria
(§2) The above growth control rates are determined by measuring the top fresh weights of the treated plants and those of the non-treated plants, and culculated from the following formula: [formula]

corn (Zea mays) = settings: crop plant, three weeks after spraying
Excerpt: as §1, §2

[2] = tested on: wheat (Triticum aestivum); settings: crop plant, three weeks after spraying
Excerpt: as §1, §2

[3] = tested on: cotton (Gossypium herbaceum); settings: crop plant, three weeks after spraying
Excerpt: as §1, §2

[4] = tested on: large crabgrass (Digitaria adscendens); settings: three weeks after spraying
Excerpt: as §1, §2

[5] = tested on: barnyardgrass (Echinochloa crusgalli); settings: three weeks after spraying
Excerpt: as §1, §2

[6] = tested on: annual sedge (Cyperus microiria); settings: three weeks after spraying
Excerpt: as §1, §2

rice (Oryza sativa) = settings: crop plant, three weeks after spraying
Excerpt: as §1, §2

soybean (Glysine max) = settings: crop plant, three weeks after spraying
Excerpt: as §1, §2

[7] = tested on: hairly galinosoga (Galinsoga ciliat); settings: three weeks after spraying
Excerpt: as §1, §2

[8] = tested on: rorippa ssp. (Rorippa atrovirens); settings: three weeks after spraying
Excerpt: as §1, §2

Row | SMILES | herbicidal effect, H (Solanum nigrum L.) ([1]; application amount 0.4 g/a) | herbicidal effect, H (Solanum nigrum L.) ([1]; application amount 0.8 g/a) | herbicidal effect, H (Solanum nigrum L.) ([1]; application amount 1.6 g/a) | herbicidal effect, T (Zea mays) (corn (Zea mays); application amount 0.4 g/a) | herbicidal effect, T (Zea mays) (corn (Zea mays); application amount 0.8 g/a) | herbicidal effect, T (Zea mays) (corn (Zea mays); application amount 1.6 g/a) | herbicidal effect, W (Triticum vulgare) ([2]; application amount 0.4 g/a) | herbicidal effect, W (Triticum vulgare) ([2]; application amount 0.8 g/a) | herbicidal effect, W (Triticum vulgare) ([2]; application amount 1.6 g/a) | herbicidal effect, C (Gossypium herbaceum) ([3]; application amount 0.4 g/a) | herbicidal effect, C (Gossypium herbaceum) ([3]; application amount 0.8 g/a) | herbicidal effect, C (Gossypium herbaceum) ([3]; application amount 1.6 g/a) | herbicidal effect, M (Digitaria adscendens) ([4]; application amount 0.4 g/a) | herbicidal effect, M (Digitaria adscendens) ([4]; application amount 1.6 g/a) | herbicidal effect, N (Echinochloa crusgalli) ([5]; application amount 1.6 g/a) | herbicidal effect, K (Cyperus microiria) ([6]; application amount 1.6 g/a) | herbicidal effect, R (Oryza sativa) (rice (Oryza sativa); application amount 1.6 g/a) | herbicidal effect, S (Glysine max) (soybean (Glysine max); application amount 1.6 g/a) | herbicidal effect, D (Galinsoga ciliat) ([7]; application amount 1.6 g/a) | herbicidal effect, I (Rorippa indica) ([8]; application amount 1.6 g/a) | further results
1 | C#CCN1C(=O)COc2cc(F)c(N3C(=O)CC(C(F)(F)F)CC3=O)cc21 [1-26] | 5 (Growth control,rates of more than 90% (almost completely withered)) | 5 (Growth control,rates of more than 90% (almost completely withered)) | 5 (Growth control,rates of more than 90% (almost completely withered)) | 4 (Growth control rates of 70 to 90%) | 5 (Growth control,rates of more than 90% (almost completely withered)) | 5 (Growth control,rates of more than 90% (almost completely withered)) | 4 (Growth control rates of 70 to 90%) | 5 (Growth control,rates of more than 90% (almost completely withered)) | 5 (Growth control,rates of more than 90% (almost completely withered)) | 5 (Growth control,rates of more than 90% (almost completely withered)) | 5 (Growth control,rates of more than 90% (almost completely withered)) | 5 (Growth control,rates of more than 90% (almost completely withered)) | 5 (Growth control,rates of more than 90% (almost completely withered)) | 5 (Growth control,rates of more than 90% (almost completely withered)) | 5 (Growth control,rates of more than 90% (almost completely withered)) | 5 (Growth control,rates of more than 90% (almost completely withered)) | 5 (Growth control,rates of more than 90% (almost completely withered)) | 4 (Growth control rates of 70 to 90%) | 5 (Growth control,rates of more than 90% (almost completely withered)) | 5 (Growth control,rates of more than 90% (almost completely withered)) | herbicidal effect, M (Digitaria adscendens) ([4]; application amount 0.8 g/a): 5 (Growth control,rates of more than 90% (almost completely withered)); herbicidal effect, N (Echinochloa crusgalli) ([5]; application amount 0.4 g/a): 5 (Growth control,rates of more than 90% (almost completely withered)); herbicidal effect, N (Echinochloa crusgalli) ([5]; application amount 0.8 g/a): 5 (Growth control,rates of more than 90% (almost completely withered)); herbicidal effect, K (Cyperus microiria) ([6]; application amount 0.4 g/a): 5 (Growth control,rates of more than 90% (almost completely withered)); herbicidal effect, K (Cyperus microiria) ([6]; application amount 0.8 g/a): 5 (Growth control,rates of more than 90% (almost completely withered)); herbicidal effect, R (Oryza sativa) (rice (Oryza sativa); application amount 0.4 g/a): 5 (Growth control,rates of more than 90% (almost completely withered)); herbicidal effect, R (Oryza sativa) (rice (Oryza sativa); application amount 0.8 g/a): 5 (Growth control,rates of more than 90% (almost completely withered)); herbicidal effect, S (Glysine max) (soybean (Glysine max); application amount 0.4 g/a): 0 (Growth control rates of less than 5% (substantially no effect)); herbicidal effect, S (Glysine max) (soybean (Glysine max); application amount 0.8 g/a): 2 (Growth control rates of 20 to 40%); herbicidal effect, D (Galinsoga ciliat) ([7]; application amount 0.4 g/a): 5 (Growth control,rates of more than 90% (almost completely withered)); herbicidal effect, D (Galinsoga ciliat) ([7]; application amount 0.8 g/a): 5 (Growth control,rates of more than 90% (almost completely withered)); herbicidal effect, I (Rorippa indica) ([8]; application amount 0.4 g/a): 5 (Growth control,rates of more than 90% (almost completely withered)); herbicidal effect, I (Rorippa indica) ([8]; application amount 0.8 g/a): 5 (Growth control,rates of more than 90% (almost completely withered))
2 | O=C1COc2cc(F)c(N3C(=O)CC(C(F)(F)F)CC3=O)cc2N1Cc1ccccc1 [1-27] | 5 (Growth control,rates of more than 90% (almost completely withered)) | 5 (Growth control,rates of more than 90% (almost completely withered)) | 5 (Growth control,rates of more than 90% (almost completely withered)) | 0 (Growth control rates of less than 5% (substantially no effect)) | 1 (Growth control rates of 5 to 20%) | 4 (Growth control rates of 70 to 90%) | 2 (Growth control rates of 20 to 40%) | 4 (Growth control rates of 70 to 90%) | 5 (Growth control,rates of more than 90% (almost completely withered)) | 0 (Growth control rates of less than 5% (substantially no effect)) | 1 (Growth control rates of 5 to 20%) | 2 (Growth control rates of 20 to 40%) | 5 (Growth control,rates of more than 90% (almost completely withered)) | 5 (Growth control,rates of more than 90% (almost completely withered)) | 5 (Growth control,rates of more than 90% (almost completely withered)) | 5 (Growth control,rates of more than 90% (almost completely withered)) | 4 (Growth control rates of 70 to 90%) | 1 (Growth control rates of 5 to 20%) | 5 (Growth control,rates of more than 90% (almost completely withered)) | 5 (Growth control,rates of more than 90% (almost completely withered)) | herbicidal effect, M (Digitaria adscendens) ([4]; application amount 0.8 g/a): 5 (Growth control,rates of more than 90% (almost completely withered)); herbicidal effect, N (Echinochloa crusgalli) ([5]; application amount 0.4 g/a): 5 (Growth control,rates of more than 90% (almost completely withered)); herbicidal effect, N (Echinochloa crusgalli) ([5]; application amount 0.8 g/a): 5 (Growth control,rates of more than 90% (almost completely withered)); herbicidal effect, K (Cyperus microiria) ([6]; application amount 0.4 g/a): 5 (Growth control,rates of more than 90% (almost completely withered)); herbicidal effect, K (Cyperus microiria) ([6]; application amount 0.8 g/a): 5 (Growth control,rates of more than 90% (almost completely withered)); herbicidal effect, R (Oryza sativa) (rice (Oryza sativa); application amount 0.4 g/a): 2 (Growth control rates of 20 to 40%); herbicidal effect, R (Oryza sativa) (rice (Oryza sativa); application amount 0.8 g/a): 3 (Growth control rates of 40 to 70%); herbicidal effect, S (Glysine max) (soybean (Glysine max); application amount 0.4 g/a): 0 (Growth control rates of less than 5% (substantially no effect)); herbicidal effect, S (Glysine max) (soybean (Glysine max); application amount 0.8 g/a): 0 (Growth control rates of less than 5% (substantially no effect)); herbicidal effect, D (Galinsoga ciliat) ([7]; application amount 0.4 g/a): 5 (Growth control,rates of more than 90% (almost completely withered)); herbicidal effect, D (Galinsoga ciliat) ([7]; application amount 0.8 g/a): 5 (Growth control,rates of more than 90% (almost completely withered)); herbicidal effect, I (Rorippa indica) ([8]; application amount 0.4 g/a): 5 (Growth control,rates of more than 90% (almost completely withered)); herbicidal effect, I (Rorippa indica) ([8]; application amount 0.8 g/a): 5 (Growth control,rates of more than 90% (almost completely withered))
3 | O=C1COc2cc(F)c(N3C(=O)CC(C(F)(F)F)CC3=O)cc2N1CC1CCCCC1 [1-28] | – | – | 5 (Growth control,rates of more than 90% (almost completely withered)) | – | – | 0 (Growth control rates of less than 5% (substantially no effect)) | – | – | 2 (Growth control rates of 20 to 40%) | – | – | 0 (Growth control rates of less than 5% (substantially no effect)) | – | 5 (Growth control,rates of more than 90% (almost completely withered)) | 5 (Growth control,rates of more than 90% (almost completely withered)) | 5 (Growth control,rates of more than 90% (almost completely withered)) | 0 (Growth control rates of less than 5% (substantially no effect)) | 0 (Growth control rates of less than 5% (substantially no effect)) | 5 (Growth control,rates of more than 90% (almost completely withered)) | 5 (Growth control,rates of more than 90% (almost completely withered)) | –
